Target: Cytochrome P450 3A4 (Homo sapiens) (UniProt P08684)
Assay: qHTS Assay for Inhibitors of Bacillus subtilis Sfp phosphopantetheinyl transferase (PPTase): CYP 3A4
Details: CYP3A4 inhibition, 3 uM, ADME profiling; stronger effect = higher value
Description: The covalent attachment of a phosphopantetheinyl (4'-PP) arm to a variety of synthases and other proteins is a key posttranslational protein modification. The 4'-PP is installed on the proteins post-translationally from coenzyme A (CoA) on a conserved serine residue by action of phosphopantetheinyl transferase (PPTase) enzymes. Phosphopantetheinylation is essential for synthase activity, and removal of the PPTase gene precludes natural product synthesis in microorganisms, or in the case of fatty acid biosynthesis, renders the organism unviable. PPTase enzymes belong to a distinct structural superfamily. Within bacteria, these enzymes are grouped into two classes based upon primary structure, the AcpS-Type and Sfp-Type PPTases.
Sfp-type PPTases, corresponding to an activator of surfactin production in Bacillus subtilis, are responsible for modifying type I polyketide and nonribosomal peptide synthases of prokaryotes. Sfp-type PPTases are responsible for the activation of a variety of pathogen-associated virulence factors. Among these compounds are toxins such as mycolactone from Mycobacterium ulcerans, siderophores such as vibriobactin from Vibrio cholerae or mycobactin from Mycobacterium tuberculosis, as well as the mycolic acids which form the waxy cell wall of Mycobacteria. The biosyntheses of these natural products are considered attractive targets for drug design. […]

Sequence of Cytochrome P450 3A4 (Homo sapiens) (P08684 whole entry, looked up): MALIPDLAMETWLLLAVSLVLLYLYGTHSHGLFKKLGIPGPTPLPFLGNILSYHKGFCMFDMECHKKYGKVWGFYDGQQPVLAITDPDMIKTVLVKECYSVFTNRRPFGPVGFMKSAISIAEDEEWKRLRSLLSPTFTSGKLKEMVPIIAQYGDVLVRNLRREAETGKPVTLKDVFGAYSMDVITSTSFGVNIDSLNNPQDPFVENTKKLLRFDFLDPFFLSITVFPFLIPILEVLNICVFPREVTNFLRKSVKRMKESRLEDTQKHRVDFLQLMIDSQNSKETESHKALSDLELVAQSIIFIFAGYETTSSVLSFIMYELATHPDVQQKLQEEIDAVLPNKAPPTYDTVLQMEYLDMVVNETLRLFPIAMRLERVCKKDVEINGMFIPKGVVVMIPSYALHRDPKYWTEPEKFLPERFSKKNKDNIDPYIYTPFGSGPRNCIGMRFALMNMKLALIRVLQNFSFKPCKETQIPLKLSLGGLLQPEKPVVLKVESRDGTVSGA

**Q.** Which inhibition does the source give for `COc1ccnc(NC(=S)N2CCN(c3ncc(C(F)(F)F)cc3Cl)CC2)c1` here?
**A.** Its inhibition is 20%.

From PubChem BioAssay AID624118 (National Center for Advancing Translational Sciences (NCATS), 2012)
